Results published in patent US11312690B2, “Compounds, compositions, methods for treating diseases, and methods for preparing compounds” (UNIVERSITY OF LOUISVILLE RESEARCH FOUNDATION, INC., priority 2015, dated 2022).
Each block holds one molecule with its values, some of them ahead of it.

Tests used:
MiaPaCa-2 = experiment: Soft agar colony formation; format: cell-based, human; set-up: Colonies in agar: unit not given here; conditions: 10 μM
Procedure: FIG. 1. Effects of some compounds of Formula (I) on RalGEF inhibitor on soft agar growth and normal growth in 2D of pancreatic carcinoma cell lines. In FIGS. 1A and 1B, Panc-1 (ATCC® CRL-1469™) and MiaPaCa-2 (ATCC® CRL-1420™) mutant Ras containing pancreatic tumor cell lines were plated in soft agar in the presence of 10 μM or 0.9 μM of compound I-1 and scored for the formation of colonies. In FIGS. 1C and 1D, compound I-1 was then tested for the ability to inhibit cell growth on the same cell lines under normal 2D growth conditions on plastic. “0” is the carrier. Cells were seeded at the same density and scored after two weeks in culture.
Human pancreatic tumor cell lines MiaPaca-2 and Panc-1 contain activated K-Ras and were used in the initial screen to identify compound I-1. Soft agar colony formation remains an established in vitro assay to predict tumorigenicity and was used to predict tumorigenicity for compound I-1.
Several other compounds were tested against the Mia Paca-2 cell line using the soft agar colony formation in vitro assay in two experiments. For each table, DMSO was used as a control and, as such, within each table, the DMSO colonies are the measure against which each measurement in the corresponding table is compared.

[1] = target: T1, interaction of K-Ras with RGL2 (Homo sapiens, UniProt O15211); experiment: Ras/RalGEF binding, immunoprecipitation and immunoblot from co-transfected HEK-293 cells; conditions: 10 μM, HA K-Ras 12v and GFP-RGL2, IP/IB, FIG. 3B
T1 construct: expressed in transfected cells; host or cells: HEK-293
T1 sequence (O15211 1-777): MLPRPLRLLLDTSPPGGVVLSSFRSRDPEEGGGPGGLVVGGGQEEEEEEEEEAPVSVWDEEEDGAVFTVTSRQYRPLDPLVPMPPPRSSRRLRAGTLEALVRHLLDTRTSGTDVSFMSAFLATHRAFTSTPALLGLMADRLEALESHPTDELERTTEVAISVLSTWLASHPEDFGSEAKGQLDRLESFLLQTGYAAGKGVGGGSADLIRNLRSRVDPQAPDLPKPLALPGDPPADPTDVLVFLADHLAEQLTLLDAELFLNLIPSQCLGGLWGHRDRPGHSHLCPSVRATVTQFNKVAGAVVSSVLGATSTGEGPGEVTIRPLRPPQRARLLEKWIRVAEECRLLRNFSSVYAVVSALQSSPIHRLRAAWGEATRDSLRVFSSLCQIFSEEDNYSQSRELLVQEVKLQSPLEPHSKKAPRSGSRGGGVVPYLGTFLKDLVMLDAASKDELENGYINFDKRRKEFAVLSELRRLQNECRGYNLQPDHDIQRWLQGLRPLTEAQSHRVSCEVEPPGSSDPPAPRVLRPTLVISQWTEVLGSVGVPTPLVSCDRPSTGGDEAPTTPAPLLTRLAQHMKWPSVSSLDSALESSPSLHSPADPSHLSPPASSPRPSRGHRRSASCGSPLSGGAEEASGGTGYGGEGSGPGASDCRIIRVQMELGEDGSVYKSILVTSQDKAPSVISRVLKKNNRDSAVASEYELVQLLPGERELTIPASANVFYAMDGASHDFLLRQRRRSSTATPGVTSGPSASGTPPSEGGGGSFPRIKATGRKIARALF

[2] = Table 3 experiment, DMSO control 1686 ± 114 colonies
[3] = Table 2 experiment, DMSO control 182 ± 7 colonies

SMILES: COc1cccc(CN(C)Cc2nc(NCc3ccccc3)c3c(C)c(C)sc3n2)c1 [Compound I-46]
Colonies in agar (MiaPaCa-2; [2]): 320 ± 22

inhibition of RGL2 (Ras/RGL2 interaction) [1]: found to inhibit RGL2
SMILES: COc1cccc(CNc2nc(CN(C)Cc3cccc(OC)c3)nc3ccccc23)c1 [Compound I-2, N-(3-Methoxybenzyl)-2-(((3-methoxybenzyl)(methyl)amino)methyl)quinazolin-4-amine]

SMILES: COc1cccc(CNc2nc(CN(C)Cc3cccc(C)c3)nc3sc(C)c(C)c23)c1 [Compound I-29]
Colonies in agar (MiaPaCa-2; [3]): 0 ± 0

SMILES: CCc1cc2c(NCc3cccc(OC)c3)nc(CN(C)Cc3cccc(OC)c3)nc2s1 [Compound I-31]
Colonies in agar (MiaPaCa-2; [3]): 14 ± 1

SMILES: COc1cccc(CNc2nc(CN(C)Cc3cccc(OC)c3)nc3scc(C)c23)c1 [Compound I-30]
Colonies in agar (MiaPaCa-2; [3]): 14 ± 2

SMILES: COc1cccc(CNc2nc(CN(C)Cc3cccc(OC)c3)nc3c2c(C)c(C)[s+]3[O-])c1 (stereo not shown) [Compound I-33]
Colonies in agar (MiaPaCa-2; [3]): 186 ± 4

SMILES: COc1cccc(CNc2nc(CN(C)Cc3cccc(OC)c3)nc3sccc23)c1 [Compound I-32]
Colonies in agar (MiaPaCa-2; [3]): 36 ± 1

SMILES: COc1cccc(CNc2nc(CN(C)Cc3ccccc3)nc3sc(C)c(C)c23)c1 [Compound I-54]
Colonies in agar (MiaPaCa-2; [2]): 410 ± 31

SMILES: COc1cccc(CN(C)Cc2nc(NCc3cccc(F)c3)c3c(C)c(C)sc3n2)c1 [Compound I-28]
Colonies in agar (MiaPaCa-2; [3]): 54 ± 5

SMILES: COc1cccc(CNc2nc(CN(C)Cc3cccc(OC)c3)nc3sc4c(c23)CCC4)c1 [Compound I-45]
Colonies in agar (MiaPaCa-2; [2]): 361 ± 49

SMILES: COc1cccc(CN(C)Cc2nc(NCc3cccc(Cl)c3)c3c(C)c(C)sc3n2)c1 [Compound I-27]
Colonies in agar (MiaPaCa-2; [3]): 51 ± 9

SMILES: COc1cccc(CN(C)Cc2nc(NCc3ccccc3OC)c3c(C)c(C)sc3n2)c1 [Compound I-43]
Colonies in agar (MiaPaCa-2; [2]): 272 ± 40

SMILES: COc1cccc(CN(C)Cc2nc(NC(C)c3ccccc3)c3c(C)c(C)sc3n2)c1 (stereo not shown) [Compound I-26]
Colonies in agar (MiaPaCa-2; [3]): 0 ± 0
